ChEMBL document CHEMBL5325457, “Targeting m6A binding protein YTHDFs for cancer therapy” (Bioorg Med Chem, 2023)

Tested on: not listed separately
Experiment: Inhibition of YTHDF (unknown origin)
Set-up: species or system Homo sapiens
With `O=c1c2ccccc2sn1CCN1CCOCC1` the EC50 was 2.83 µM. For `CCN(CC)CCn1sc2ccccc2c1=O`, the EC50 was 1.69 µM. Work on `O=c1c2ccccc2[se]n1-c1ccccc1` [EBSELEN] yielded an EC50 of 1.5 µM.

Molecular target: T1, YTH domain-containing family protein 2 (Homo sapiens, UniProt Q9Y5A9)
T1 sequence (Q9Y5A9 whole entry): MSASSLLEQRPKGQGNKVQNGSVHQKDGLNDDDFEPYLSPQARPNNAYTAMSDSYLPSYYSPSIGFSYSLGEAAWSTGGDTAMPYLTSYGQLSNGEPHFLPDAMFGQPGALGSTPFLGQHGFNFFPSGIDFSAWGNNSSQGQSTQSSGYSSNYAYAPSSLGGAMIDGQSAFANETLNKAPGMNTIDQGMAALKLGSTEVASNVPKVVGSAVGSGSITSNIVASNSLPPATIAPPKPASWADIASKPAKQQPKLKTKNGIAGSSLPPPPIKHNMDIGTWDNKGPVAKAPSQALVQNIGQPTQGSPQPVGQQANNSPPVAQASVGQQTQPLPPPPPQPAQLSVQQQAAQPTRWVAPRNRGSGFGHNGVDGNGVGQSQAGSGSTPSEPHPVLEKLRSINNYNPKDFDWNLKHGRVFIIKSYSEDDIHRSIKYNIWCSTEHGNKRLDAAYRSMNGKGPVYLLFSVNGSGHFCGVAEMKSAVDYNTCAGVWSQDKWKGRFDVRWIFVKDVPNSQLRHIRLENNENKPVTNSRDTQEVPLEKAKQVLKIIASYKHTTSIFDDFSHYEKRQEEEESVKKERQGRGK
Experiment: Inhibition of YTHDF2 YTH domain (unknown origin) (383 to 579 residues) expressed as Escherichia coli BL21 (DE3) Rosetta cells by HTFR based binding assay
`Cn1c(=O)cc(C2CC2)[nH]c1=O` showed an IC50 of 161 µM. Work on `CNc1ncnc2c(C)[nH]nc12` yielded an IC50 of 174 µM. With `O=c1cc(C2CC2)[nH]c(=O)[nH]1` the IC50 was 410 µM. For `CNc1ncnc2c(-c3ccccc3)[nH]nc12`, the IC50 was 491 µM.
